Source: patent US20240345008A1 (Eth Zurich, priority 2021, published 2024)
No end group written: not given here.

Key:
PDZ protein domain [1] = experiment: photo-CIDNP enhanced NMR ligand-target binding, peptides vs PDZ protein domain (sample A vs B); details: 100 μM peptide, 25 μM fluorescein, PDZ 100 μM, 450 nm, 1 W, 4 s, no spin lock
[2] = biological target: PIN1 protein (peptidyl-prolyl cis-trans isomerase NIMA-interacting 1) (Homo sapiens, UniProt Q13526); experiment: photo-CIDNP enhanced NMR ligand-target binding, small molecules vs PIN1 protein; details: 100 μM ligand, 25 μM fluorescein, 50 μM PIN1 (ligand 3-4: 25 μM ligand, 15 μM fluorescein, 25 μM PIN1), 450 nm, 1 W, 2 s
K-Ras protein = K-Ras protein (Homo sapiens, UniProt P01116); experiment: photo-CIDNP enhanced NMR ligand-target binding with spinlock, small molecules vs K-Ras protein; details: 500 μM ligand, 25 μM fluorescein, 100 μM K-Ras, 450 nm, 1 W, 2 s, spinlock 200 ms
PIN1 protein = PIN1 protein (Homo sapiens, UniProt Q13526); experiment: prior knowledge / verification of PIN1 binding (Potter et al. 2010; verification); details: method of verification not stated
PDZ protein domain [3] = experiment: photo-CIDNP NMR titration for dissociation constant of peptide ligand to PDZ protein domain; type: binding; details: 47 μM peptide, 25 μM fluorescein, series of PDZ concentrations and irradiation times, 450 nm, fit of equations (7) and (6)
PDZ protein domain [4] = experiment: photo-CIDNP enhanced 1H NMR titration, 47 µM peptide against a series of PDZ domain concentrations, fit of equations (7) and (6)

PIN1 protein (peptidyl-prolyl cis-trans isomerase NIMA-interacting 1), sequence (Q13526 whole entry, species assumed): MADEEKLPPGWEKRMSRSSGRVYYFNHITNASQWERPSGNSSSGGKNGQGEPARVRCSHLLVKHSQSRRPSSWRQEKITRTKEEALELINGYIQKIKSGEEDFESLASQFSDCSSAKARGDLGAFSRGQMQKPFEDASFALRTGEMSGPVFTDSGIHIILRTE
PIN1 protein, sequence (Q13526 whole entry, species assumed, the tested form may be a part): as the sequence (Q13526 whole entry, species assumed) above

## WEQLT (Peptide 3)
PDZ protein domain [1]
  binding to the target PDZ (signal modified in presence of target): did not bind

## Cc1cccc(-c2nc(C(=O)O)c(C)[nH]2)c1 [ligand 3-1, 5-methyl-2-(3-methylphenyl)-imidazole-4-carboxylic acid]
[2]
  binding to the target PIN1 (signal modified in presence of target): bound to the target PIN1

## COc1ccc(C)cc1NC(=O)Nn1cnnc1 [ligand 4-3, N-(2-methoxy-5-methylphenyl)-N′-4H-1,2,4-triazol-4-ylurea]
K-Ras protein
  binding to the target K-Ras (signal modified in presence of target): bound to the target K-Ras

## 5 N-(Furan-2-ylmethyl)-1H-benzimidazol-2-amine)-imidazole-4-carboxylic acid [ligand 4-1]
K-Ras protein
  binding to the target K-Ras (signal modified in presence of target): bound to the target K-Ras

## O=C1NCCCc2c1oc1ccc(O)cc21 [ligand 3-4, 4-hydroxy-8-oxa-11-azatricyclo[7.5.0.0^2,7]tetradeca-1 (9),2,4,6-tetraen-10-one]
[2]
  binding to the target PIN1 (signal modified in presence of target): bound to the target PIN1

## WVSAV-NH2 [Peptide 4]
PDZ protein domain [1]
  binding to the target PDZ (signal modified in presence of target): did not bind

## Cc1ccc2[nH]cc(C(=O)O)c2c1 [ligand 3-2, 5-methyl-indole-3-carboxylic acid]
[2]
  binding to the target PIN1 (signal modified in presence of target): bound to the target PIN1

## N[C@@H](Cc1c[nH]c2ccccc12)C(=O)O [ligand 3-3, tryptophan]
PIN1 protein
  verification of binding to PIN1: verified to not bind to PIN1
[2]
  binding to the target PIN1 (signal modified in presence of target): did not bind

## O=C(O)Cc1c[nH]c2ccccc12 [ligand 4-4, indoleacetic acid]
K-Ras protein
  binding to the target K-Ras (signal modified in presence of target): did not bind

## WVSAV [Peptide 1]
PDZ protein domain [3]
  Kd: 7 µM
PDZ protein domain [1]
  binding to the target PDZ (signal modified in presence of target): binding to the target PDZ

B1: Peptide 1 (WVSAV) (peptide)
peptide: WVSAV
PDZ protein domain [4]
  Kd: 7 µM
